Measurements published in patent US7344730B1, “Soil granulates with controlled active ingredient release (cr soil granulates)” (BASF SE, priority 1998, dated 2008).
Where two headings read alike, the source gives them in different places.

Legend:
[1] = Granule elution apparatus: release of active ingredient from CR granules into about 4000 ml water in 24 h; format: physicochemical; conditions: for active ingredient detected in the collected liquid: Example 3 granules (PVA+PVP coating), 30 g of granules, 3980 g of water in 24 hours; for Release rate in 24 h at 40° C., 4000 ml: coating percentage 4%
Protocol: The plant serves to determine the delayed release of active ingredients or salts from controlled release (CR) formulations. A frit on which the granules to be tested are placed is located in a cylindrical vessel at the lower edge. Underneath the frit there is an S-shaped drain which causes liquid to drain from the cylinder only when it is 80% full. Water (if appropriate together with wetter) is pumped through the CR formulations in a cylindrical feed container (approx. volume 100 ml) by means of a hose pump in such a way that the feed material is surrounded completely by water. The percolating water is collected in receiving vessels. An automatic switch causes the receiving vessels to be changed in order to determine the release of active ingredients over time. […] Unless elution temperatures are specified, a bath temperature of 30° C. was set.
The elution plant operates 24 hours a day in conjunction with the program control. One elution takes 24 hours, and during this time approx. 4000 ml of fluid are pumped through the feed material and collected in receiving vessels. The active ingredient content in the eluate is determined by means of HPLC or GC. Whether release is uniform can be checked with reference to the feed material. The cumulative value provides a measure for assessing granule permeability.
The release rate of the active ingredients was determined in the above-described elution apparatus. To this end, 30 g of the carrier granules were weighed into a trapped container equipped with a frit. In 24 hours, an amount of 3980 g of water was pumped through the container and collected. 124 mg of fenpropimorph and 19 mg of epoxiconazole were detected in the collected liquid.

Erysiphe-graminis = assay: Field experiments on spring wheat Star: disease level Erysiphe graminis; format: in vivo; conditions: soil application in CR granules combined with strobilurin, Table 12 series
From the text: Due to the rapid release of active ingredient, the long-term action of this sample was insufficient, so that only a minor effect was discernible in comparison with the untreated sample.
The carriers employed were urea and Rasenfloranid granules.

[2] = format: in vivo, winter wheat; conditions: for epoxiconazole detected per kg of biomass: winter wheat, in vivo
Protocol: This product was applied together with cereal seed (winter wheat). On average, approx. 3 fungicidal active ingredient pellets were deposited subterraneously per seed kernel. Epoxiconazole was detected in the growing cereal plants two and six months after application. Two months after sowing, 0.038 mg were detected per kg of biomass, and six months after application 0.022 mg were still detected per kg of biomass.

Q: Which “active ingredient detected in the collected liquid” value [1] does the source give for `CC(Cc1ccc(C(C)(C)C)cc1)CN1C[C@@H](C)O[C@@H](C)C1` (mixture of isomers) [Comp. 1, (±)-cis-4-[3-(4-tert-butylphenyl)-2-methylpropyl]-2,6-dimethyl-morpoline] here?
A: 124 mg

Q: With `CC(=O)Oc1ccccc1C(=O)O` [Comp. 7, acetylsalicylic acid] as the compound, how does the “activity-enhancing effect in combination (words)” value (Erysiphe-graminis; listed as Compound 7) read?
A: same activity-enhancing effects as Bion®

Q: With `CC(=O)Oc1ccccc1C(=O)O` [acetylsalicylic acid] as the compound, how does the “activity-enhancing effect in combination (words)” value (Erysiphe-graminis) read?
A: activity-enhancing effects

Q: With `Fc1ccc([C@]2(Cn3cncn3)O[C@H]2c2ccccc2Cl)cc1` (racemic) [Comp. 6, (2RS,3SR)-1-[3-(2-chlorophenyl)-2,3-epoxy-2-(4-fluorophenyl)-propyl]-1H-1,2,4-triazole] as the compound, how does the “active ingredient detected in the collected liquid” value [1] read?
A: 19 mg

Q: What about the “Release rate in 24 h at 40° C., 4000 ml” value ([1]; filler (starch C-Pur) 0%) of the same compound?
A: 2.70%

Q: What about the “Release rate in 24 h at 40° C., 4000 ml” value ([1]; filler (starch C-Pur) 10%) of the same compound?
A: 3.30%

Q: And the “Release rate in 24 h at 40° C., 4000 ml” value ([1]; filler (starch C-Pur) 20%)?
A: 7.15%

Q: What about the “controlled release of the active ingredient in the soil, duration” value ([2]; PVA+PVP coating, Example 3) of the same compound?
A: at least 6 months

Q: And the “epoxiconazole detected per kg of biomass” value ([2]; 2 months)?
A: 0.038 mg per kg of biomass

Q: And the “epoxiconazole detected per kg of biomass” value ([2]; 6 months)?
A: 0.022 mg per kg of biomass
